What all share (assay type): cell-based
Assay [1] has as its system Methicillin-resistant S. aureus (MRSA, ATCC 33591). The experiment in a line: MIC against MRSA. Particulars: Gram +, 16 h, 37° C.; for MIC: Staphylococcus aureus. The protocol: (§1) Minimum Inhibitory Concentrations (MICs) Against Bacteria.
(§2) The antimicrobial activity of the compounds was tested on the following six bacteria strains: K. pneumoniae (ATCC 13383), P. aeruginosa (ATCC27853), E. coli (ATCC 25922), vancomycin-resistant Enterococcus faecalis(ATCC 700802), Methicillin-resistant S. aureus (MRSA, ATCC 33591), Methicillin-resistant S. epidermidis (MRSE, RP62A). The procedures were followed as reported previously (Hancock et al., Immunobiology 2006, 211, 315-322). Briefly, a single colony of each bacterium was inoculated in 3 mL TSB medium and incubated overnight at 37° C. Then the bacteria culture was diluted at 1:100 and the bacteria were allowed to grow to mid-logarithmic phase. Next, 50 μL of 2-fold serial dilutions of compounds (0.1-25 μg/mL) were added the 96-well plate containing aliquots of 50 μL of bacteria suspension (1×10^6 CFU/mL) in each well. The mixture was incubated at 37° C. for 16 h, and their absorption at 600 nm wavelength was read on a Biotek Synergy HT microtiter plate reader. […] The experiments were repeated at least three times with duplicates each time. HC50 means the concentration causing 50% hemolysis.

The next assay has as its system E. coli (ATCC 25922). Nature of the assay: MIC against E. coli. Particulars: Gram −, 16 h, 37° C.; for MIC: Escherichia coli, ATCC25922. The protocol: as §1, §2
Assay [2] concerns P. aeruginosa (ATCC27853). The experiment in a line: MIC against P. aeruginosa. Conditions: Gram −, 16 h, 37° C.; for MIC: Pseudomonas aeruginosa, ATCC27853. The protocol:
as §1, §2

The test system of assay [3] is vancomycin-resistant Enterococcus faecalis (ATCC 700802). The experiment in a line: MIC against VRE. Particulars: Gram +; 16 h, 37° C. The protocol: as §1, §2
The test system of assay [4] is K. pneumoniae (ATCC 13383). Nature of the assay: MIC against K. pneumoniae. Conditions: Gram −, 16 h, 37° C.; for MIC: Klebsiella pneumoniae, ATCC13383. The protocol: as §1, §2
Assay [5] deals with Methicillin-resistant S. epidermidis (MRSE, RP62A). The experiment in a line: MIC against MRSE. Conditions: Gram +, 16 h, 37° C.; for MIC: Staphylococcus epidermidis, MRSE. The protocol:
as §1, §2

In assay [6] the test system is six bacteria strains (K. pneumoniae, P. aeruginosa, E. coli, VRE, MRSA, MRSE). The experiment in a line: Antimicrobial activity on the panel of six bacteria strains. As for the experimental part:
as §1, §2

For `N=C1N[C@@H](Cc2ccccc2)CN1CC(=O)NCCCCNC(=O)CN1C[C@H](Cc2ccccc2)NC1=N` [Compound 1], the MIC (in assay [1]; in the assay with E. coli (ATCC 25922)) was above 25 µg/mL each time.
As for `N=C1N[C@@H](Cc2ccccc2)CN1CC(=O)Nc1cccc(NC(=O)CN2C[C@H](Cc3ccccc3)NC2=N)c1` [Compound 2], the MIC (in assay [1]; in the assay with E. coli (ATCC 25922)) was above 25 µg/mL throughout.
For `CCN1C(=N)N(CC(=O)Nc2ccc(NC(=O)CN3C[C@H](Cc4ccccc4)N(CC)C3=N)cc2)C[C@@H]1Cc1ccccc1` [Compound 3], the MIC (commonly the least concentration at which growth counts as inhibited) in assay [2] was above 25 µg/mL; in assay [3], above 25 µg/mL; in assay [1], 6 to 12 µg/mL; in assay [4] it was above 25 µg/mL; with E. coli (ATCC 25922) it was 1.5 µg/mL; in assay [5], above 25 µg/mL. In addition, the “MIC MRSA” value in assay [1] was 6~12 μg/mL.
Consider `CCN1C(=N)N(CC(=O)Nc2cccc(NC(=O)CN3C[C@H](Cc4ccccc4)N(CC)C3=N)c2)C[C@@H]1Cc1ccccc1` [Compound 4], for which the MIC was above 25 µg/mL in assay [2]; above 25 µg/mL in assay [3]; 6 to 12 µg/mL in assay [1]; above 25 µg/mL in assay [4]; 3 µg/mL with E. coli (ATCC 25922); above 25 µg/mL in assay [5]. Besides, the “MIC MRSA” value in assay [1] is 6~12 μg/mL. Moreover, the “MIC E. coli” value in the assay on E. coli (ATCC 25922) came out at 3.0 µg/mL.
In the case of `N#CNc1cccc(NC(=O)CN2C[C@H](Cc3ccccc3)N(CCCc3ccccc3)C2=N)c1` [Compound 7], the MIC in assay [1] was 12 to 25 µg/mL; in the assay with E. coli (ATCC 25922), above 25 µg/mL. Besides, in assay [6], the “antibacterial activity against the tested bacteria (in words)” value (from here on “antibacterial activity”) is recorded as “negligible activity”.
In the same order, the values of `N=C1N(CC(=O)Nc2cccc(NC(N)=O)c2)C[C@H](Cc2ccccc2)N1CCCc1ccccc1` [Compound 8] are 12 to 25 µg/mL, above 25 µg/mL and “negligible activity”.
`N=C1N(CC(=O)Nc2ccc(-c3ccc(NC(=O)CN4C[C@H](Cc5ccccc5)N(CCCc5ccccc5)C4=N)cc3)cc2)C[C@H](Cc2ccccc2)N1CCCc1ccccc1` [Compound 10]: the MIC (in assay [1]; with E. coli (ATCC 25922)) was above 25 µg/mL each time. Besides, the “antibacterial activity” value in assay [6] is given as “not active”.
Take `CCCCCCCCN1C(=N)N(CC(=O)Nc2ccc(NC(=O)CN3C[C@H](Cc4ccccc4)N(CCCCCCCC)C3=N)cc2)C[C@@H]1Cc1ccccc1` [Compound 17]: the MIC in assay [1] was 1.5 µg/mL; in the assay on E. coli (ATCC 25922), above 25 µg/mL. Besides, the “antibacterial activity” value in assay [6] is reported as “decreased activity”.
On to `N=C1N(CC(=O)Nc2ccc(NC(=O)CN3C[C@H](Cc4ccccc4)N(CCC45CC6CC(CC(C6)C4)C5)C3=N)cc2)C[C@H](Cc2ccccc2)N1CCC12CC3CC(CC(C3)C1)C2` [Compound 21], for which the MIC in assay [1] is 6 µg/mL; with E. coli (ATCC 25922), above 25 µg/mL.
In the same order, the values of `N=C1N(CC(=O)Nc2cccc(NC(=O)CN3C[C@H](Cc4ccccc4)N(CCC45CC6CC(CC(C6)C4)C5)C3=N)c2)C[C@H](Cc2ccccc2)N1CCC12CC3CC(CC(C3)C1)C2` [Compound 22] are 3 µg/mL and above 25 µg/mL.
For the compound `CCCCCCCCCC(=O)N[C@@H](Cc1c[nH]c2ccccc12)C(=O)N[C@H](CC(N)=O)C(=O)N[C@@H](CC(=O)O)C(=O)N[C@@H]1C(=O)NCC(=O)N[C@@H](CCCN)C(=O)N[C@@H](CC(=O)O)C(=O)N[C@H](C)C(=O)N[C@@H](CC(=O)O)C(=O)NCC(=O)N[C@H](CO)C(=O)N[C@@H]([C@H](C)CC(=O)O)C(=O)N[C@@H](CC(=O)c2ccccc2N)C(=O)O[C@@H]1C` [Daptomycin, reference compound], the minimum inhibitory concentration (MIC) in assay [2] was above 50 µg/mL; in assay [3] it was 1 µg/mL; in assay [1] it was 0.5 µg/mL; in assay [4], above 50 µg/mL; in the assay on E. coli (ATCC 25922), above 50 µg/mL; in assay [5], 0.5 µg/mL.
Turning to Colistin [reference compound], in assay [2], the “MIC P. aeruginosa” value came to 1.0 µg/mL. In addition, in assay [3], the “MIC VRE” value was above 50 µg/mL. Also, the “MIC MRSA” value in assay [1] was above 50 µg/mL. Further, in assay [4], the “MIC K. pneumoniae” value stood at 0.5 µg/mL. The “MIC E. coli” value in the assay on E. coli (ATCC 25922) came to 0.5 µg/mL. Besides, the “MIC MRSE” value in assay [5] was above 50 µg/mL.

For the origin of these results see US10144713B1, “Bis-cyclic guanidines as antibacterial agents” (UNIVERSITY OF SOUTH FLORIDA, priority 2017, dated 2018).
